Experimental data from ChEMBL document CHEMBL1141210, “Structure-based discovery of a new class of Hsp90 inhibitors” (Bioorg Med Chem Lett, 2005).

Columns and labels:
Heat shock protein HSP90 = Heat shock protein HSP90 (Homo sapiens, UniProt P07900+P08238)
Description: Binding affinity to Hsp90 by fluorescent polarization assay

HCT-116 = experiment: Inhibition of cell proliferation in HCT116 human colon cancer cell line; format: functional
BT-474 = experiment: Inhibition of cell proliferation in BT474 human breast cancer cell line after 48 hr exposure; format: functional; conditions: BT-474, 48 h

SMILES | IC50 (Heat shock protein HSP90) | GI50 (HCT-116) | GI50 (BT-474)
CCc1ccc(S(=O)(=O)Nc2ccc(O)c(-c3c(O)ccc4ccccc34)c2)cc1 | 6.6 µM |  | 
O=S(=O)(Nc1ccc(O)c(-c2c(O)ccc3ccccc23)c1)c1ccc(Br)cc1 | 6.1 µM |  | 
Cc1cc(C)c(S(=O)(=O)Nc2ccc(O)c(-c3c(O)ccc4ccccc34)c2)cc1C | 15.2 µM |  | 
O=S(=O)(Nc1ccc(O)c(-c2c(O)ccc3ccccc23)c1)c1cccs1 | 0.6 µM | 59.8 µM | 
O=S(=O)(Nc1ccc(O)c(-c2c(O)ccc3ccccc23)c1)c1ccc(Cl)cc1 | 2.2 µM | 27.8 µM | 
O=S(=O)(Nc1ccc(O)c(-c2c(O)ccc3ccccc23)c1)c1ccc(F)cc1 | 8.8 µM |  | 
O=S(=O)(Nc1ccc(O)c(-c2c(O)ccc3ccccc23)c1)c1cc(Cl)ccc1Cl |  | 29 µM | 34.9 µM
CC(C)(C)c1ccc(S(=O)(=O)Nc2ccc(O)c(-c3c(O)ccc4ccccc34)c2)cc1 | 26.4 µM |  | 
O=S(=O)(Nc1ccc(O)c(-c2c(O)ccc3ccccc23)c1)c1ccccc1 | 3.3 µM |  | 
C[C@@H]1C[C@H]2O[C@@H]2/C=C\C=C\C(=O)Cc2c(Cl)c(O)cc(O)c2C(=O)O1 [RADICICOL] |  | 0.13 µM | 
C=CCNC1=C2C[C@@H](C)C[C@H](OC)[C@H](O)[C@@H](C)/C=C(\C)[C@H](OC(N)=O)[C@@H](OC)/C=C\C=C(/C)C(=O)NC(=CC1=O)C2=O [TANESPIMYCIN] |  | 0.16 µM | 
